The nature of experiment [1]: Liposomal membrane disruption assay (carboxyfluorescein LUVs). In kind it is biochemical. As for the experimental part: Preparation of LUVs consisting of PC/PG. Carboxyfluorescein-encapsulated large unilamellar vesicles (LUVs) were prepared according to the thin-film hydration method, followed by extrusion through Nuclepore polycarbonate filters (GE Healthcare) mounted in the mini-extruder apparatus (Avanti Polar Lipids). A solution of egg yolk phosphatidylcholine (9.60 mg, 12.5 µmol) and egg yolk phosphatidylglycerol (9.78 mg, 12.5 µmol) in CHCl3 (0.505 mL) was concentrated, and dried under vacuum to form a lipid thin film. The thin film was hydrated and suspended in carboxyfluorescein-containing buffer solution [0.500 mL, 5 mM 4-(2-hydroxyethyl)-1-piperazineethanesulfonic acid (HEPES), 20 mM carboxyfluorescein, pH 7.5] by vortexing and sonication. After five -times freeze-thaw cycles, the lipid suspension was extruded 19 times through a polycarbonate filter with 0.40 µm of pore size in the diameter. The external carboxyfluorescein -containing buffer was replaced w ith a carboxyfluorescein -free buffer solution [20 mM HEPES, 1 mM ethylenediaminetetraacetic acid (EDTA), pH 7.5] through size exclusion chromatography using disposable PD-10 column (GE Healthcare). Concentration of egg yolk phosphatidylcholine was determined by using Phospholipid C-Test Wako (Fujifilm Wako Pure Chemical). The final concentration of egg yolk phosphatidylcholine was adjusted to 4.0 µM with the carboxyfluorescein-free buffer solution, and the solution was used for membrane disruption assay. […]
Membrane disruption assay. […]
to various concentrations as 5-fold serial dilutions. The solution of peptides (2 µL/well) and the carboxyfluorescein-encapsulated LUV suspension (200 µL/well) were mixed in black polystyrene flat-bottom 96-well plates. The final concentration of peptides ranged from 2970 nM to 0.950 nM. The plates were vortexed at room temperature for 30 min, and then fluorescence of carboxyfluorescein (Ex. 490 nm/Em. 517 nm) of each well was measured at room temperature on Gemini EM microplate reader. Trion X-100/H2O (5/95, 2 µL), MeOH/H2O (4/6, 2 µL), and the LUV suspension were mixed in each plate to determine 100% lysis. MeOH/H2O (4/6, 2 µL) and the LUV suspension were mixed in each plate to determine 0% lysis.
The membrane disruption activities of tested peptides (I) were normalized against 100% lysis by Triton X -100 […]
(Imax) and 0% lysis by MeOH/H2O (4/6) (I0) as following, where Ix is the fluorescence intensity (Supplementary Equation 2).
I = 100 × (Ix – I0) / (Imax – I0) (2)
The membrane-disrupting activities were evaluated as half-maximal response (EC50, nM) values by means of three replicates. Sigmoidal curve fittings were performed on R2 with drc package (Supplementary Figs S7–S9).3 Two-parameter logistic model was applied for the fitting.

The test system of experiment [2] is S. aureus Smith ATCC 13709. As to the kind of experiment: Antimicrobial activity assay of bead-derived peptides (one-bead, microscale). Type of experiment: cell-based, Staphylococcus aureus. The arrangement: key to antimicrobial activity: ++: inhibition; +: partial inhibition; -: no inhibition. As to conditions: for antimicrobial activity: 85% of one-bead-derived crude peptide, 40 μL Mueller Hinton Broth with 10% calf serum, 37 °C, 18 h. As for the experimental part:
Finally, a microscale antimicrobial assay was developed to evaluate the activity of 1 in solution phase.
Antimicrobial activity assay of bead-derived peptides. To the crude peptides in the 96-well round-bottom plate was added DMSO (1 µL/well). To the solution of peptides in each well was added a suspension of S. aureus Smith ATCC 13709 strain in 10% calf serum containing cation adjusted Müller Hinton Broth [40 µL, 2 ×10^5 colony forming units (CFU) , 21 g/L Müller Hinton Broth (Difco), 5 0 mg/L Ca2+ (adjusted with CaCl2• 2H2O), and 25 mg/L Mg 2+ (adjusted with MgCl 2•6H2O)]. The plate was incubated at 37 °C for 18 h, and the precipitation of the grown cells was examined. […]

Where [3] appears, read: 30 min, room temperature, mean ± SD of three independent experiments, read-out: EC50 PC/PG.
The mark [4] stands for this setting: PC/PG LUVs, 1st experiment, read-out: EC50 PC/PG 1st.
Where [5] appears, read: PC/PG LUVs, 2nd experiment, read-out: EC50 PC/PG 2nd.
[6] abbreviates: PC/PG LUVs, 3rd experiment, read-out: EC50 PC/PG 3rd.

Each structure is given as a SMILES string. “Also recorded” adds a separate entry of the source. Read-outs that look alike come from different tables or passages of the source. Where a SMILES comes first, the peptide text is derived from it. Bridges are numbered along the chain shown (N, C = ends). [ ]: non-standard residue; d: D form. The star is where a group is joined. Hexanoyl(3R-OH,5-Me) = CC(C)C[C@@H](O)CC(=O)*; dNMeF = CN[C@H](Cc1ccccc1)C(=O)O; dOrn = NCCC[C@@H](N)C(=O)O

On to `CC(C)C[C@@H](O)CC(=O)N[C@@H]1C(=O)N[C@H](CCCNC(=N)N)C(=O)N[C@@H](C)C(=O)NCC(=O)N(C)[C@H](Cc2ccccc2)C(=O)N[C@@H](CC(C)C)C(=O)N[C@H](CCCNC(=N)N)C(=O)N[C@@H](CCC(=O)O)C(=O)N[C@H](Cc2ccc(O)cc2)C(=O)N[C@H](Cc2c[nH]c3ccccc23)C(=O)N[C@@H](Cc2ccc(O)cc2)C(=O)N[C@@H]([C@@H](C)O)C(=O)O[C@@H]1C` [Peptide A15] ({Hexanoyl(3R-OH,5-Me)}-T[dR]AG[dNMeF]L[dR]E[dY][dW]YT; ester 1-C), for which the EC50 in experiment [1] (setting [3]) was 1010 ± 210 nM; in experiment [1] (setting [4]), 1260 nM; in experiment [1] (setting [5]), 889 nM; in experiment [1] (setting [6]), 895 nM. Also, the antimicrobial activity entry in experiment [2] was “+”.
Taken in the same sequence, the figures for `CC[C@H](C)[C@@H]1NC(=O)[C@@H](Cc2c[nH]c3ccccc23)NC(=O)[C@@H](Cc2ccc(O)cc2)NC(=O)[C@H](CCC(=O)O)NC(=O)[C@@H](CCCNC(=N)N)NC(=O)[C@H](CC(C)C)NC(=O)[C@@H](Cc2ccccc2)N(C)C(=O)CNC(=O)[C@H](CC(=O)O)NC(=O)[C@@H](CCCNC(=N)N)NC(=O)[C@@H](NC(=O)C[C@H](O)CC(C)C)[C@@H](C)OC(=O)[C@H]([C@@H](C)O)NC1=O` [Peptide A17] ({Hexanoyl(3R-OH,5-Me)}-T[dR]DG[dNMeF]L[dR]E[dY][dW]IT; ester 1-C) were more than 1500 nM, more than 1500 nM, more than 1500 nM, more than 1500 nM and “+”.
As to `CC[C@H](C)[C@@H]1NC(=O)[C@@H](Cc2c[nH]c3ccccc23)NC(=O)[C@@H](C(C)C)NC(=O)[C@H](CCC(=O)O)NC(=O)[C@@H](CCCNC(=N)N)NC(=O)[C@H](CC(C)C)NC(=O)[C@@H](Cc2ccccc2)N(C)C(=O)CNC(=O)[C@H](CCCCN)NC(=O)[C@@H](CCCNC(=N)N)NC(=O)[C@@H](NC(=O)C[C@H](O)CC(C)C)[C@@H](C)OC(=O)[C@H]([C@@H](C)O)NC1=O` [Peptide A3] ({Hexanoyl(3R-OH,5-Me)}-T[dR]KG[dNMeF]L[dR]E[dV][dW]IT; ester 1-C), the EC50 stood at 822 ± 234 nM in experiment [1] (setting [3]), 1010 nM in experiment [1] (setting [4]), 900 nM in experiment [1] (setting [5]) and 559 nM in experiment [1] (setting [6]). In addition, the antimicrobial activity result in experiment [2] (listed as KLVI) was “++ and +”.
With `CC[C@H](C)[C@@H]1NC(=O)[C@@H](Cc2c[nH]c3ccccc23)NC(=O)[C@@H](CCC(N)=O)NC(=O)[C@H](CCC(=O)O)NC(=O)[C@@H](CCCNC(=N)N)NC(=O)[C@H](CC(C)C)NC(=O)[C@@H](Cc2ccccc2)N(C)C(=O)CNC(=O)[C@H](C)NC(=O)[C@@H](CCCNC(=N)N)NC(=O)[C@@H](NC(=O)C[C@H](O)CC(C)C)[C@@H](C)OC(=O)[C@H]([C@@H](C)O)NC1=O` [Peptide A1] ({Hexanoyl(3R-OH,5-Me)}-T[dR]AG[dNMeF]L[dR]E[dQ][dW]IT; ester 1-C), the EC50 in experiment [1] (setting [3]) was found to be 975 ± 195 nM; in experiment [1] (setting [4]) it was 1080 nM; in experiment [1] (setting [5]), 1090 nM; in experiment [1] (setting [6]) it was 750 nM. Also, the antimicrobial activity result in experiment [2] is recorded as “+”.
For the molecule `CC[C@H](C)[C@@H]1NC(=O)[C@@H](Cc2c[nH]c3ccccc23)NC(=O)[C@@H](CCCN)NC(=O)[C@H](CCC(=O)O)NC(=O)[C@@H](CCCNC(=N)N)NC(=O)[C@H](CC(C)C)NC(=O)[C@@H](Cc2ccccc2)N(C)C(=O)CNC(=O)[C@H](Cc2ccc(O)cc2)NC(=O)[C@@H](CCCNC(=N)N)NC(=O)[C@@H](NC(=O)C[C@H](O)CC(C)C)[C@@H](C)OC(=O)[C@H]([C@@H](C)O)NC1=O` [Peptide A7] ({Hexanoyl(3R-OH,5-Me)}-T[dR]YG[dNMeF]L[dR]E[dOrn][dW]IT; ester 1-C), the EC50 in experiment [1] (setting [3]) is 1120 ± 200 nM; in experiment [1] (setting [4]), 1320 nM; in experiment [1] (setting [5]), 1120 nM; in experiment [1] (setting [6]), 923 nM. Further, in experiment [2] (listed as YLOI), the antimicrobial activity entry was “+ and ++”.
`CC[C@H](C)[C@@H]1NC(=O)[C@@H](Cc2c[nH]c3ccccc23)NC(=O)[C@@H](CCCN)NC(=O)[C@H](CCC(=O)O)NC(=O)[C@@H](CCCNC(=N)N)NC(=O)[C@H](CC(C)C)NC(=O)[C@@H](Cc2ccccc2)N(C)C(=O)CNC(=O)[C@H](CC(=O)O)NC(=O)[C@@H](CCCNC(=N)N)NC(=O)[C@@H](NC(=O)C[C@H](O)CC(C)C)[C@@H](C)OC(=O)[C@H]([C@@H](C)O)NC1=O` [Peptide A16] ({Hexanoyl(3R-OH,5-Me)}-T[dR]DG[dNMeF]L[dR]E[dOrn][dW]IT; ester 1-C): the EC50 in experiment [1] (setting [3]), in experiment [1] (setting [4]), in experiment [1] (setting [5]) and in experiment [1] (setting [6]) was more than 1500 nM in each case. Moreover, the antimicrobial activity entry in experiment [2] is reported as “+”.
Consider `CC[C@H](C)[C@@H]1NC(=O)[C@@H](Cc2c[nH]c3ccccc23)NC(=O)[C@@H](CCCN)NC(=O)[C@H](CCC(=O)O)NC(=O)[C@@H](CCCNC(=N)N)NC(=O)[C@H](CC(C)C)NC(=O)[C@@H](Cc2ccccc2)N(C)C(=O)CNC(=O)[C@H](CC(N)=O)NC(=O)[C@@H](CCCNC(=N)N)NC(=O)[C@@H](NC(=O)C[C@H](O)CC(C)C)[C@@H](C)OC(=O)[C@H]([C@@H](C)O)NC1=O` [Peptide A14] ({Hexanoyl(3R-OH,5-Me)}-T[dR]NG[dNMeF]L[dR]E[dOrn][dW]IT; ester 1-C), for which the EC50 in experiment [1] (setting [3]), in experiment [1] (setting [4]), in experiment [1] (setting [5]) and in experiment [1] (setting [6]) was more than 1500 nM throughout. Also, in experiment [2], the antimicrobial activity result is “+”.
In the case of `CC[C@H](C)[C@@H]1NC(=O)[C@@H](Cc2c[nH]c3ccccc23)NC(=O)[C@@H](CCC(N)=O)NC(=O)[C@H](CCC(=O)O)NC(=O)[C@@H](CCCNC(=N)N)NC(=O)[C@H](CC(C)C)NC(=O)[C@@H](Cc2ccccc2)N(C)C(=O)CNC(=O)[C@H](CO)NC(=O)[C@@H](CCCNC(=N)N)NC(=O)[C@@H](NC(=O)C[C@H](O)CC(C)C)[C@@H](C)OC(=O)[C@H]([C@@H](C)O)NC1=O` [Peptide 1, Lysocin E] ({Hexanoyl(3R-OH,5-Me)}-T[dR]SG[dNMeF]L[dR]E[dQ][dW]IT; ester 1-C), the EC50 was 559 nM in experiment [1] (setting [3]), 527 nM in experiment [1] (setting [4]), 689 nM in experiment [1] (setting [5]) and 460 nM in experiment [1] (setting [6]). In experiment [2] (10% BCS-doped Mueller Hinton Broth (40 μL), natural 1 0.04 μg per well or 85% of single bead-derived 1 (0.21 μg), duplicate), the “growth inhibition of S. aureus Smith ATCC 13709” value was “Complete growth inhibition; also recorded: completely inhibit the growth”. Also, the antimicrobial activity entry in experiment [2] is given as “++”.
Take `CC[C@H](C)[C@@H]1NC(=O)[C@@H](Cc2c[nH]c3ccccc23)NC(=O)[C@@H](C(C)C)NC(=O)[C@H](CCC(=O)O)NC(=O)[C@@H](CCCNC(=N)N)NC(=O)[C@H](CC(C)C)NC(=O)[C@@H](Cc2ccccc2)N(C)C(=O)CNC(=O)[C@H](C)NC(=O)[C@@H](CCCNC(=N)N)NC(=O)[C@@H](NC(=O)C[C@H](O)CC(C)C)[C@@H](C)OC(=O)[C@H]([C@@H](C)O)NC1=O` [Peptide A2] ({Hexanoyl(3R-OH,5-Me)}-T[dR]AG[dNMeF]L[dR]E[dV][dW]IT; ester 1-C): the EC50 in experiment [1] (setting [3]) is 714 ± 188 nM; in experiment [1] (setting [4]) it was 917 nM; in experiment [1] (setting [5]), 680 nM; in experiment [1] (setting [6]) it was 545 nM. The antimicrobial activity result in experiment [2] is “++”.
